Data from US20250381242A1 (INVAIO SCIENCES, INC., priority 2024, published 2025).
Positions of bridges follow the written chain, without caps; N, C: chain ends. Residues, ends and D or L forms follow the SMILES beside them. No end group written: not given here.

Experiments:
A. tumefaciens = conditions: 24 h, 10 μM
E. amylovora = conditions: 24 h, 10 μM
E. coli = assay: Bacterial growth inhibition by OD600 absorbance, E. coli; format: cell-based, E. coli (DH5-alpha); conditions: peptide 10 μM, 24 hours at 37° C., OD 600 nm
Protocol: (§1) Antimicrobial activity of antimicrobial peptides was tested against the agricultural microbial pests A. tumefaciens, E. amylovora, E. coli, and X. citri, using OD absorbance measurement to detect bacterial growth.
(§2) Antimicrobial peptides were synthesized using solid phase peptide synthesis method and resuspended in 10% DMSO to a 1 mM stock concentration. The stock solution was aliquoted in cryovials and stored at −80° C.
(§3) An aliquot of 198 μl of the bacterial culture was added to each well in a 96-well plate and 2 μl of a 1 mM peptide stock solution was added to each well, for a final treatment concentration of 10 μM of a given peptide. Media only wells were included to control for contamination. The positive controls were 50 μg/ml oxytetracycline hydrochloride and 500 μg/ml streptomycin sulfate. A 0.1% DMSO treatment was included as a negative control.
(§4) An initial absorbance reading of the bacterial suspensions was taken at 600 nm. Then, the bacteria were grown in an incubator at 30° C. (A. tumefaciens, E. amylovora, X. citri) or 37° C. (E. coli) for 24 hours, after which the final absorbance reading was measured. Using the initial and final absorbance reading compared to negative and positive controls, the percent inhibition of the bacterial strain by given peptide treatment was determined.

X. citri = assay: Bacterial growth inhibition by OD600 absorbance, X. citri; format: cell-based, X. citri subsp. citri (ATCC 49118); conditions: peptide 10 μM, 24 hours at 30° C., OD 600 nm
Protocol: as §1, §2, §3, §4

| Compound | growth inhibition, A. tumefaciens (A. tumefaciens) [%] | growth inhibition, E. amylovora (E. amylovora) [%] | growth inhibition, E. coli (E. coli) [%] | growth inhibition, X. citri (X. citri) [%] |
| --- | --- | --- | --- | --- |
| C[C@@H](O)[C@H](NC(=O)[C@H](CS)NC(=O)[C@@H](N)Cc1c[nH]c2ccccc12)C(=O)N[C@@H](Cc1c[nH]c2ccccc12)C(=O)N[C@@H](CCCCN)C(=O)NCC(=O)N[C@@H](CCC(N)=O)C(=O)N1CCC[C@H]1C(=O)N[C@@H](CS)C(=O)N[C@@H](Cc1c[nH]c2ccccc12)C(=O)O [compound 3] (H-WCTWKGQPCW-OH; N-terminus and C-terminus assumed) | <90 | <90 |  |  |
| CC[C@H](C)[C@H](NC(=O)[C@H](CO)NC(=O)[C@H](CC(N)=O)NC(=O)[C@H](CC(C)C)NC(=O)[C@H](Cc1ccc(O)cc1)NC(=O)[C@H](CCCCN)NC(=O)[C@H](CCCCN)NC(=O)[C@@H](NC(=O)[C@H](C)NC(=O)[C@H](CCSC)NC(=O)[C@H](CCC(N)=O)NC(=O)[C@H](CCCCN)NC(=O)[C@H](CCCNC(=N)N)NC(=O)[C@H](CC(C)C)NC(=O)[C@H](CCCNC(=N)N)NC(=O)[C@@H](NC(=O)[C@H](Cc1ccc(O)cc1)NC(=O)[C@H](CC(N)=O)NC(=O)[C@H](CC(=O)O)NC(=O)[C@@H](NC(=O)[C@H](Cc1ccccc1)NC(=O)[C@@H](NC(=O)[C@H](C)NC(=O)[C@H](CC(=O)O)NC(=O)[C@H](CO)NC(=O)[C@@H](N)Cc1c[nH]cn1)C(C)C)[C@@H](C)O)[C@@H](C)O)C(C)C)C(=O)N[C@@H](CC(C)C)C(=O)N[C@@H](CC(N)=O)C(=O)O [compound 12] | <90 | <90 | <90 | 93.86 |
| CC[C@H](C)[C@H](NC(=O)CNC(=O)[C@@H]1CCCN1C(=O)CNC(=O)[C@H](CC(C)C)NC(=O)[C@H](CC(N)=O)NC(=O)[C@H](C)NC(=O)[C@H](Cc1ccccc1)NC(=O)[C@H](CC(N)=O)NC(=O)[C@H](C)NC(=O)[C@H](CCCNC(=N)N)NC(=O)[C@H](Cc1ccccc1)NC(=O)[C@H](C)NC(=O)[C@@H](NC(=O)[C@H](CCCNC(=N)N)NC(=O)[C@H](Cc1c[nH]c2ccccc12)NC(=O)[C@H](Cc1ccc(O)cc1)NC(=O)[C@H](CC(=O)O)NC(=O)[C@H](C)NC(=O)[C@H](CC(C)C)NC(=O)CN)[C@@H](C)O)C(=O)N[C@@H](CCCNC(=N)N)C(=O)N[C@@H](CS)C(=O)N[C@@H](CCCCN)C(=O)N[C@@H](CO)C(=O)N[C@@H](C)C(=O)N[C@@H](CCCNC(=N)N)C(=O)N[C@@H](CS)C(=O)O [compound 18] (H-GLADYWRTAFRANFANLGPGIRCKSARC-OH; N-terminus and C-terminus assumed) | <90 | <90 |  |  |
| CC(C)C[C@H](NC(=O)[C@H](CCCCN)NC(=O)[C@H](C)NC(=O)[C@H](CC(C)C)NC(=O)[C@H](CCCCN)NC(=O)[C@H](CCCCN)NC(=O)[C@H](C)NC(=O)[C@H](CC(C)C)NC(=O)[C@H](CCCCN)NC(=O)[C@H](C)NC(=O)[C@H](CC(C)C)NC(=O)[C@H](CCCCN)NC(=O)[C@H](Cc1c[nH]cn1)NC(=O)[C@H](C)NC(=O)[C@@H](N)CC(=O)O)C(=O)N[C@@H](C)C(=O)N[C@@H](CCCCN)C(=O)O [compound 97] | <90 | <90 | <90 | <90 |
| AAKAWLKLWAKAA [compound 135] | <90 | <90 | <90 | <90 |
| AKLKAYPLKAKLYP [compound 114] | <90 | <90 | <90 | <90 |
| AKRLKKLAKKIWKWK [compound 92] | 99.87 | 99.93 | <90 | <90 |
| ALKSLLATLSKAKKKKLKTLLAALSK [compound 31] | 100.00 | 100.00 | <90 | 100.00 |
| ALKSLLKTLSKAKAAKLKTLLKALSK [compound 30] | 100.00 | 100.00 | 98.52 | 100.00 |
| ALWFTMLKKLGTMALHAGKAALGAAANTISQGTQ [compound 9] | 99.90 | 91.75 | <90 | 100.00 |
| ALWKKLLKKLLKSAKKLG [compound 77] | 100.00 | 100.00 | 100.00 | 100.00 |
| AMWKDVLKKIGTVALHAGKAALGAVADTISQ [compound 17] | 100.00 | <90 | <90 | 100.00 |
| DCLSGRYKGPCAVWDNETCRRVCKEEGRSSGHCSPSLKCWCEGC (disulfide 2-44, 11-33, 19-39, 23-41) [compound 145] | <90 | <90 |  |  |
| DLWNSIKDMAAAAGRAALNAVTGMVNQ [compound 29] | <90 | <90 | <90 | <90 |
| FAKKLAKKLKKLAKKLAK [compound 80] | 98.82 | 100.00 | <90 | <90 |
| FFHHIFRGIVHVGKTKHRLVTG [compound 37] | <90 | <90 | <90 | <90 |
| FFHHIKRGIKHVGKTIHRLVTG [compound 38] | <90 | 100.00 | <90 | 100.00 |

| Compound | growth inhibition, A. tumefaciens (A. tumefaciens) [%] | growth inhibition, E. amylovora (E. amylovora) [%] | growth inhibition, E. coli (E. coli) [%] | growth inhibition, X. citri (X. citri) [%] |
| --- | --- | --- | --- | --- |
| FKKLKKLFKKILKLK [compound 95] | 99.80 | 100.00 | <90 | <90 |
| FKKLKKLFSKLWNWK [compound 84] | 100.00 | 100.00 | 96.39 | <90 |
| FKVQNQHGQVVKIFHH [compound 89] | <90 | <90 | <90 | <90 |
| FPFLKLSLKIPKSAIKSAIKRL [compound 1] | <90 | <90 | <90 | <90 |
| FQWQRNMRKVR [compound 124] | <90 | <90 | <90 | <90 |
| FRIRVRVAKKFGKAFVGEIM [compound 64] | <90 | <90 | <90 | <90 |
| GFWGKLWKPVKKAI [compound 107] | <90 | <90 | <90 | <90 |
| GIKFFLKKLKKHI [compound 115] | <90 | <90 | <90 | 100.00 |
| GLWSKIKEVGKEAAKAAAKAAGKAALGAVSEAV [compound 16] | 100.00 | 100.00 | 100.00 | 100.00 |
| GMWSKILGHLIR [compound 137] | <90 | 100.00 | <90 | <90 |
| GWASSIGSILGKFAKGGAQAFLQPK [compound 44] | <90 | <90 | <90 | <90 |
| GWGDTFLKTMAKIAKVGPKLLHS [compound 48] | <90 | <90 | <90 | <90 |
| GWRTLLKKAEVKTVGKLALKHYL [compound 32] | <90 | <90 | <90 | <90 |
| IGKLFKRIVQRILKFLRNL [compound 63] | <90 | <90 | 97.14 | <90 |
| ILKKIWKPIKKLF [compound 109] | <90 | <90 | <90 | <90 |
| ILKKLLKKVKSI [compound 136] | <90 | <90 | <90 | <90 |
